We go through five compounds from patent US20030092760A1, “Therapeutic agent for renal failure” (Toray Industries, Inc., priority 2001, published 2003).

For test [1], the system named is renal failure rat models of which the primary disease is glomerulonephritis. The experiment in a line: Renal failure rat models of which the primary disease is glomerulonephritis, subcutaneous osmotic pump. The format is in vivo, WKY rats. As to conditions: Table 5. From the text:
Renal failure rat models of which the primary disease was glomerulonephritis were used to examine the effect of different 4,8-inter-m-phenylene prostaglandin I2 derivatives including beraprost sodium on the models. […] Two weeks after the induction, blood was collected from each rat through the tail vein to determine blood creatinine and BUN levels. […] Four types of 4,8-inter-m-phenylene prostaglandin I2 derivatives in total, including beraprost sodium, were individually administered subcutaneously to the rats from the back continuously with an osmotic pump (ALZET) for one week, beginning two weeks after induction of glomerulonephritis and continued through three weeks after the induction. The renal functions (i.e., blood creatinine and BUN levels) were determined one week after the initial administration of a drug.

Test [2] has as its system glomerulonephritis model rats in inflammatory stage. The experiment in a line: Glomerulonephritis model rats, inflammatory stage, oral administration. As to conditions: for Urinary total protein excretion: 7 days after induction (1 week after initial administration); for Increase in urinal total protein excretion (in words): day 1 through day 7 after induction.
Description: (§1) Eight-week-old male WKY rats (Charles River Japan Inc.) were administered intravenously with rabbit anti-rat glomerular basement membrane antiserum to induce glomerulonephritis. […] The frequency of the administration was twice a day for beraprost sodium and captopril and once a day for prednisolone. After the initial administration of a drug, urinary total protein excretion (which is a measure of renal functions) was determined.
Test [3] has as its system glomerulonephritis model rats in renal failure stage. The experiment in a line: Glomerulonephritis model rats, renal failure stage, oral administration. As to conditions: for Increase in urinal total protein excretion (in words): renal failure stage, two weeks through four weeks after induction.
Description: as §1
The test system of test [4] is ⅚ nephrectomized rat model. Description: Effect on ⅚ nephrectomized rat model: renal functions. Particulars: 50 mg/kg oral twice a day. It is filed as in vivo, Wistar rats. The procedure: The effect of beraprost sodium on a ⅚ nephrectomized rat model, which has been widely used as a model animal for renal failure, was examined. Two-thirds of the left kidney was removed from each of 4-week-old male Wistar rats (Charles River Japan Inc.) with a razor, and all of the right kidney was then removed therefrom one week after. Three weeks after the initial surgery, blood was collected from each rat through the tail vein and serum creatinine and BUN levels were determined from the blood. At this point of time, the urine was also collected for 24 hours to determine the mass of proteins in the urine. The rats were allocated to one of the treatment groups by the stratifying continuous randomization method based on the mass of proteins in the urine and the body weight (n=8 per group). […] Three weeks after the initial surgery, beraprost sodium or captopril (SIGMA, i.e., a positive control) was orally administered to each rat twice a day everyday, beginning the day on which administration of a drug was started and continued through five weeks after the administration. The determination of the renal functions was performed both three weeks and five weeks after the initial administration of a drug. The photographic images of the renal tissue were observed only five weeks after the initial administration.

Test [5] concerns ⅚ nephrectomized rat model. The experiment in a line: ⅚ nephrectomized rat model: observation of renal tissue images (histopathological change). It is filed as in vivo, Wistar rats. Particulars: 50 μg/kg; number of animals with change in 8 animals per group; five weeks after initial administration. The method, then: The effect of beraprost sodium on a ⅚ nephrectomized rat model, which has been widely used as a model animal for renal failure, was examined. Two-thirds of the left kidney was removed from each of 4-week-old male Wistar rats (Charles River Japan Inc.) with a razor, and all of the right kidney was then removed therefrom one week after. Three weeks after the initial surgery, blood was collected from each rat through the tail vein and serum creatinine and BUN levels were determined from the blood. At this point of time, the urine was also collected for 24 hours to determine the mass of proteins in the urine. The rats were allocated to one of the treatment groups by the stratifying continuous randomization method based on the mass of proteins in the urine and the body weight (n=8 per group). There was observed little difference in the initial values of blood creatinine and BUN values among the rats. Three weeks after the initial surgery, beraprost sodium or captopril (SIGMA, i.e., a positive control) was orally administered to each rat twice a day everyday, beginning the day on which administration of a drug was started and continued through five weeks after the administration. The determination of the renal functions was performed both three weeks and five weeks after the initial administration of a drug. The photographic images of the renal tissue were observed only five weeks after the initial administration. […] Five weeks after the initial administration, more exacerbation of chronic renal failure was observed. […] The same tendency was shown five weeks after the initial administration (Table 2).

[6] abbreviates: 60 μg/kg group, 2 weeks after induction (before administration).
[7] abbreviates: 60 μg/kg s.c. osmotic pump, 3 weeks after induction (1 week after the initial administration).
Setting [8] is: five weeks after the administration of a drug.
Where [9] appears, read: three weeks after the administration of a drug.

`O=C([O-])CCCc1cccc2c1OC1CC(O)C(C#CC(O)C3CCCCC3)C21.[Na+]` (stereo not drawn) [Compound 1]: the BUN in test [1] (setting [6]) stood at 29 ± 2 mg/dL; in test [1] (setting [7]), 27 ± 2 mg/dL. Also, the Blood creatinine stood at 0.44 ± 0.05 mg/dL in test [1] (setting [6]) and 0.41 ± 0.02 mg/dL in test [1] (setting [7]).

Regarding `O=C([O-])CCCc1cccc2c1OC1CC(O)C(/C=C/C(O)c3ccccc3)C21.[Na+]` (stereo not drawn) [Compound 3], the BUN stood at 28 ± 3 mg/dL in test [1] (setting [6]) and 30 ± 3 mg/dL in test [1] (setting [7]). Besides, the Blood creatinine in test [1] (setting [6]) turned out to be 0.45 ± 0.05 mg/dL; in test [1] (setting [7]), 0.39 ± 0.04 mg/dL.

As for `C[C@]12C=CC(=O)C=C1CC[C@@H]1[C@@H]2[C@@H](O)C[C@@]2(C)[C@H]1CC[C@]2(O)C(=O)CO` [Prednisolone, prednisolone], the “Urinary total protein excretion” value stood at 38 ± 8 mg/24 hr in test [2] (2 mg/kg oral once a day); 368 ± 20 mg/24 hr in test [3] (2 mg/kg group, renal failure stage Exp. 1, 2 weeks after induction (before administration)); 456 ± 78 mg/24 hr in test [3] (2 mg/kg oral once a day, renal failure stage Exp. 1, 3 weeks after induction (1 week after initial administration)). The “Increase in urinal total protein excretion (in words)” value (from here on “Increase”) in test [2] is “effective prevention”; in test [3], “no effective prevention”.

With `O=C([O-])/C=C/Cc1cccc2c1OC1CC(O)C(/C=C/C(O)c3ccccc3)C21.[Na+]` (stereo not drawn) [Compound 2], in test [1] (setting [6]), the BUN came out at 28 ± 2 mg/dL and the Blood creatinine is 0.45 ± 0.04 mg/dL. In test [1] (setting [7]), the BUN was found to be 31 ± 3 mg/dL and the Blood creatinine is 0.44 ± 0.05 mg/dL.

As for `C[C@H](CS)C(=O)N1CCC[C@H]1C(=O)O` [Captopril, captopril, reference compound], in test [4] (setting [8]), the Blood urea nitrogen worked out at 47.8 ± 5.2 mg/dL and the Urinary protein excretion was found to be 255.5 ± 76.6 mg/24 hr/kgBW. In test [4] (setting [9]), this compound registered a Blood urea nitrogen of 51.4 ± 3.7 mg/dL and a Urinary protein excretion of 136.8 ± 29.9 mg/24 hr/kgBW. For the same compound, in test [5], the “Framework: Infiltration of mononuclear cells” value was 7, the “Renal corpuscle: Cellular filling in glomerulus” value is 4, the “Renal corpuscle: Coagulation of glomeruli in Bowman's capsule” value is on record as 2 and the “Renal corpuscle: Deposition of PAS + materials in Bowman's capsule” value was 1. In test [5], the “Renal corpuscle: Epidermal growth in Bowman's capsule” value is on record as 2, the “Renal corpuscle: Glomerular hypertrophy” value is listed as 1, the “Renal corpuscle: Glomerulosclerosis” value was 2 and the “Uriniferous tuble: Basophilic degeneration of tubules” value came out at 6. In test [5], the “Uriniferous tuble: Proliferation of proximal tubules” value turned out to be 8, the “Uriniferous tuble: Proteinaceous urinary casts” value is recorded as 4 and the “Uriniferous tuble: Tubular dilation” value was 8. In addition, in test [2] (50 mg/kg oral twice a day), the “Urinary total protein excretion” value is on record as 75 ± 14 mg/24 hr. Also, in test [2], the “Increase” value was “effective prevention”. Also, the “Urinary total protein excretion” value in test [3] (50 mg/kg group, renal failure stage Exp. 2, 2 weeks after induction (before administration)) was found to be 318 ± 22 mg/24 hr. Also, in test [3] (50 mg/kg oral twice a day, renal failure stage Exp. 2, 4 weeks after induction (2 week after initial administration)), the “Urinary total protein excretion” value is recorded as 504 ± 51 mg/24 hr. In addition, in test [3] (100 mg/kg group, renal failure stage Exp. 2, 2 weeks after induction (before administration)), the “Urinary total protein excretion” value is recorded as 325 ± 6 mg/24 hr. The “Urinary total protein excretion” value in test [3] (100 mg/kg oral twice a day, renal failure stage Exp. 2, 4 weeks after induction (2 week after initial administration)) amounted to 517 ± 33 mg/24 hr. Also, the “Increase” value in test [3] was “no effective prevention”.
